Laboratory results: patent publication US20260327655A1, “SMALL-MOLECULE REGULATED ALTERNATIVE SPLICING” (priority 2023, published 2026)

Tests used:
[1] = tested on: RS4-1 and variants; assay: Luciferase induction assay, RS4-1 and variants in HEK-293T cells; assay type: cell-based, human; conditions: 18 hours, FIGS. 15A, 15B
Description: HEK-293T cells were cultured in DMEM+10% FBS, collected after trypsinization, and dispensed into 96-well plates (cell culture-treated). Each well of the plate was seeded with 1.0×10^5 cells in 100 μL culture medium. After a 1-hour incubation in the tissue culture incubator (5% CO2, 37° C.), plasmid DNA was complexed with a transfection reagent, such as Lipofectamine 3000, and added to respective wells on the plate. Each well received 100 ng of plasmid DNA complexed with 0.15 μL Lipofectamine 3000. The plasmids utilized in the experiment encoded a CMV promoter upstream of the RS4-1 construct and variants that controlled the expression of a Firefly Luciferase gene followed by a SV40 polyadenylation signal. After a 10-minute incubation at room temperature, either DMSO vehicle or 24 A at specified doses was added to the wells of the plate. Plates were then incubated for 18 hours in a tissue culture incubator. Endpoint analysis was performed by adding 100 uL of a Luciferase substrate, such as Steady-Luc Firefly Luciferase substrate, to each well of the assay plate. The liquid contents of each was transferred to a 96-well plate, mixed again for 2 min on an orbital shaker, and incubated at room temperature for 5 min. Finally, the luminescent signal from each well was measured with a plate reader. […]

[2] = tested on: RS3-13 minigene (Firefly Luciferase), HEK-293T cells; assay: Luciferase induction assay, RS3-13 with splice modulator compounds in HEK-293T cells; assay type: cell-based; conditions: Homo sapiens, 18 hours, n of 3, read-out: Mean fold-induction of luciferase (relative to vehicle control)
[3] = tested on: RS1-10, HEK-293T cells; assay: RS1-10 performance in HEK-293T cells; assay type: cell-based, human; conditions: CMV promoter, 18 hours, FIG. 10A
Description: (§1) Human cell line HEK-293T cells or NIH-3T3 mouse fibroblast cell line cells were cultured in DMEM+10% FBS, collected after trypsinization, and then dispensed into 96-well plates (cell culture-treated). Each well of the plate was seeded with 1.0×10^5 cells in 100 μL culture medium. After a 1-hour incubation in the tissue culture incubator (5% CO2, 37 degrees C.), plasmid DNA was complexed with a transfection reagent, such as Lipofectamine 3000, and added to respective wells on the plate. Each well received an equivalent of 100 ng of plasmid DNA complexed with 0.15 μL Lipofectamine 3000. Triplicate wells were used for each condition tested in the experiment. The plasmid utilized in the experiments for HEK-293T cells and NIH-3T3 mouse fibroblast cells encoded a CMV promoter upstream of the RS1-10 construct that controlled the expression of a Firefly Luciferase gene followed by a SV40 polyadenylation signal. After a 10-minute incubation at room temperature, either DMSO vehicle or 24 A at specified doses was added to the wells of the plate. Plates were then incubated for 18 hours in a tissue culture incubator. Endpoint analysis was performed by adding 100 uL of a Luciferase substrate, such as Steady-Luc Firefly Luciferase substrate, to each well of the assay plate. […] Finally, the luminescent signal from each well was measured with a plate reader. […]

[4] = tested on: RS1-10, NIH-3T3 cells; assay: RS1-10 performance in NIH-3T3 cells; assay type: cell-based, mouse; conditions: CMV promoter, 18 hours, FIG. 10B
Description: as §1

SMILES: CCN1CC(c2ccc(-c3ccc(-c4ccc5nn(C)cc5c4)cc3O)nn2)C1 [Compound 24A, 2-[6-(1-ethylazetidin-3-yl)pyridazin-3-yl]-5-(2-methyl-2H-indazol-5-yl)phenol]
- fold-induction of luciferase [1]: increasing fold-induction of luciferase with increasing concentrations
- fold induction at 0.1 µM ([2]; RS3-13, 100 nM): 6.27
- fold induction at 1 µM ([2]; RS3-13, 1,000 nM): 42.4
- fold-induction of luciferase [3]: increasing fold-induction of luciferase with increasing concentrations of 24 A
- fold-induction of luciferase [4]: increasing fold-induction of luciferase with increasing concentrations of 24 A
